Patent US7144919B1, “Polyoxyethylene-polyoxypropylene vitamin E and process for preparation thereof” (priority 2000, dated 2006)

Assay: Anti-oxidation activity: peroxide value of linoleic acid
Settings: sample 0.5% in linoleic acid, incubator 40° C.
Protocol: The novel POE-POP vitamin E of the present invention was examined for anti-oxidation activity, using linoleic acid. Readily being oxidized, linoleic acid can be used in determining the ability of an antioxidant of interest to inhibit the oxidation of linoleic acid. Used in this test was reagent-grade linoleic acid that comprised linoleic acid 85% and linolenic acid 15%.
POE-POP vitamin E prepared in Example 1, 2 or 3 was added in an amount of 0.5% to linoleic acid while vitamin E, vitamin E acetate, POE (12EO) vitamin E, POE (24 EO)-cholesterol, POE (20 EO) sorbitan monostearate, and POE (12 EO) nonylphenylether were also used as references. These samples were stored in an incubator maintained at 40° C. After two and ten days of incubation, a peroxide value was determined for each sample. In detail, in 1.0 g of each sample was placed in a 250 ml Erlenmeyer flask and dissolved with 10 ml of chloroform. To the solution, 15 ml of glacial acetic acid and 1 ml of saturated potassium iodide solution were added, and a stopper was put in the flask. After being vigorously shaken, the flask was allowed to stand in a dark place for 5 min. Thereafter, the flask was added with 75 ml of distilled water and vigorously shaken. Free iodine was titrated with a 0.01 N sodium thiosulfate solution, using a starch solution as an indicator. The point at which the solution became colorless was regarded as the end point. The peroxide value was calculated as follows:
[formula] wherein, S: Amount of 0.01 N sodium thiosulfate solution consumed by sample (ml) B: Amount of 0.01 N sodium thiosulfate solution consumed in blank test tube (ml) F: Factor of 0.01 N sodium thiosulfate solution

Compound	Peroxide Values (Day 2)	Peroxide Values (Day 10)
CC(=O)Oc1c(C)c(C)c2c(c1C)CCC(C)(CCC[C@H](C)CCC[C@H](C)CCCC(C)C)O2 (stereo partly shown) [Vitamin E acetate]	26.2	122.3
Vitamin E	21.6	58.9
